In assay [1] the test system is human umbilical vein endothelial cells (HUVEC). As to the kind of experiment: HUVEC+VEGF Proliferation Assay. Type of assay: cell-based. Conditions: VEGF-stimulated proliferation, final VEGF 6 ng/mL, 72 hours, MTT dye reduction. Here is the method:
This assay determines the ability of a test compound to inhibit the growth factor-stimulated proliferation of human umbilical vein endothelial cells (“HUVEC”). HUVEC cells (passage 3-4, Clonetics, Corp.) were thawed into EGM2 culture medium (Clonetics Corp) in T75 flasks. Fresh EGM2 medium was added to the flasks 24 hours later. Four or five days later, cells were exposed to another culture medium (F12K medium supplemented with 10% fetal bovine serum (FBS), […] endothelial cell growth supplement (ECGS), and 0.1 mg/mL heparin). Exponentially-growing HUVEC cells were used in experiments thereafter. Ten to twelve thousand HUVEC cells were plated in 96-well dishes in […] of rich, culture medium (described above). The cells were allowed to attach for 24 hours in this medium. The medium was then removed by aspiration and […] of starvation media (F12K+1% FBS) was added to each well. After 24 hours, […] of test agent dissolved in 1% DMSO in starvation medium or this vehicle alone was added into each treatment well; the final DMSO concentration was 0.1%. One hour later, […] of VEGF (30 ng/mL) in starvation media was added to all wells except those containing untreated controls; the final VEGF concentration was 6 ng/mL. Cellular proliferation was quantified 72 hours later by MTT dye reduction, at which time cells were exposed for 4 hours MTT (Promega Corp.). Dye reduction was stopped by addition of a stop solution (Promega Corp.) and absorbance at 595 nm was determined on a 96-well spectrophotometer plate reader.
Background: Tetrazolium assays rely on reduction of a dye to a coloured formazan, in cell work by metabolically active cells.

Assay [2] has as its target T1, human vascular endothelial growth factor receptor 2 (VEGF-R2) (Homo sapiens, UniProt P35968, DEL940-989/E990V).
T1 construct: VEGF-R2D50 contains residues 806-939 and 990-1171; made in house; host or cells: baculovirus/insect cell system
As to the kind of experiment: VEGF-R2 coupled spectrophotometric assay (FLVK). In kind it is biochemical. Conditions: unphosphorylated VEGF-R2D50 (FLVK). From the text:
This construct determines the ability of a test compound to inhibit tyrosine kinase activity. A construct (VEGF-R2D50) of the cytosolic domain of human vascular endothelial growth factor receptor 2 (VEGF-R2) lacking the 50 central residues of the 68 residues of the kinase insert domain was expressed in a baculovirus/insect cell system. Of the 1356 residues of full-length VEGF-R2, VEGF-R2D50 contains residues 806-939 and 990-1171, and also one point mutation (E990V) within the kinase insert domain relative to wild-type VEGF-R2. Autophosphorylation of the purified construct was performed by incubation of the enzyme at a concentration of […] in the presence of 3 mM ATP and 40 mM MgCl2 in 100 mM HEPES, pH 7.5, containing 5% glycerol and 5 mM DTT, at 4° C. for 2 h. […] See Parast et al., Biochemistry, 37, 16788-16801 (1998).
The production of ADP from ATP that accompanies phosphoryl transfer was coupled to oxidation of NADH using phosphoenolpyruvate (PEP) and a system having pyruvate kinase (PK) and lactic dehydrogenase (LDH). The oxidation of NADH was monitored by following the decrease of absorbance at 340 nm (e340=6.22 cm^−1 mM^−1) using a Beckman DU 650 spectrophotometer. Assay conditions for phosphorylated VEGF-R2D50 (indicated as FLVK-P in the tables below) were the following: 1 mM PEP; […]; 50 units of LDH/mL; 20 units of PK/mL; 5 mM DTT; 5.1 mM poly(E4Y1); 1 mM ATP; and 25 mM MgCl2 in 200 mM HEPES, pH 7.5. Assay conditions for unphosphorylated VEGF-R2D50 (indicated as FLVK in the tables) were the following: 1 mM PEP; […]; 50 units of LDH/mL; 20 units of PK/mL; 5 mM DTT; 20 mM poly(E4Y1); 3 mM ATP; and 60 mM MgCl2 and 2 mM MnCl2 in 200 mM HEPES, pH 7.5. Assays were initiated with 5 to 40 nM of enzyme. Ki values were determined by measuring enzyme activity in the presence of varying concentrations of test compounds. The percent inhibition at 50 nm (% inhibition @ 50 nm) was determined by linear least-squares regression analysis of absorbance as a function of time. The binding inhibitions were fitted to equation as described by Morrison. The data were analyzed using Enzyme Kinetic and Kaleidagraph software.

The structures appear in SMILES notation. pIC50, pKi: −log10 of the molar value.

T1 sequence (P35968 with tags, fused parts or gaps DEL940-989/E990V limits assumed): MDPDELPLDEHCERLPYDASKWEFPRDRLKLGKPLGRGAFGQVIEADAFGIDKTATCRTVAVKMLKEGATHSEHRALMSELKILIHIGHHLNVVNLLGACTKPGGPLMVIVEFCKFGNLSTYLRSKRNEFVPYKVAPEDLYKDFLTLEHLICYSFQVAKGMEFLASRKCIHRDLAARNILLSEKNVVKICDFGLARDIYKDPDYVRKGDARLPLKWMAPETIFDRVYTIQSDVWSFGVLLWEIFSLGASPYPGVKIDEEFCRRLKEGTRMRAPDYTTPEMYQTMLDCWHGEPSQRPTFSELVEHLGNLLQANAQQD

In the case of `CNC(=O)c1cccc2cc(Oc3ccnc4cc(OC)ccc34)ccc12` [Example 43, 6-(7-Methoxy-quinolin-4-yloxy)-naphthalene-1-carboxylic Acid Methylamide], the pIC50 (usually the negative decadic logarithm of the IC50, by convention in mol/L) in assay [1] is 8.00 to 9.00. Moreover, the pKi (commonly −log10 of the Ki, conventionally taken in molar units) in assay [2] was 8.00 to 9.00.
Consider `O=C(Nc1ccc(N2CCOCC2)nc1)c1cccc2cc(Oc3ccnc4ccsc34)ccc12` [Example 35, 6-(Thieno[3,2-b]pyridin-7-yloxy)-naphthalene-1-carboxylic acid (6-morpholin-4-yl-pyridin-3-yl)-amide], for which, in assay [1], the negative-log IC50 (pIC50) was 8.00 to 9.00. In assay [2], the pKi is greater than 9.00.
With `COc1ccc2c(Oc3ccc4c(C(=O)NC5CC5)cccc4c3)ccnc2c1` [Example 51, 6-(7-Methoxy-quinolin-4-yloxy)-naphthalene-1-carboxylic acid cyclopropylamide], the pIC50 in assay [1] was 8.00 to 9.00. Further, the pKi in assay [2] was greater than 9.00.
As to `CNC(=O)c1cccc2cc(Oc3ccnc4cc(C(=O)N5CC[C@@H](N(C)C)C5)sc34)ccc12` [Example 5, 6-[(2-{[(3R)-3-(dimethylamino)pyrrolidin-1-yl]carbonyl}thieno[3,2-b]pyridin-7-yl)oxy]-N-methyl-1-naphthamide], the pIC50 in assay [1] is 8.00 to 9.00. The compound further showed a negative logarithm of the Ki (pKi) in assay [2] of 8.00 to 9.00.
With `O=C(NCCCN1CCOCC1)c1cccc2cc(Oc3ccnc4ccsc34)ccc12` [Example 39, 6-(Thieno[3,2-b]pyridin-7-yloxy)-naphthalene-1-carboxylic acid (3-morpholin-4-yl-propyl)-amide], the pIC50 in assay [1] is 8.00 to 9.00. Also, the pKi in assay [2] is 8.00 to 9.00.
Consider `Cn1ccnc1-c1cc2nccc(Oc3ccc4c(C(=O)NCCN5CCOCC5)cccc4c3)c2s1` [Example 14, 6-{[2-(1-Methyl-1H-imidazol-2-yl)thieno[3,2-b]pyridin-7-yl]oxy}-N-(2-morpholin-4-ylethyl)-1-naphthamide], for which the negative logarithm of the IC50 (pIC50) in assay [1] was 8.00 to 9.00. The pKi in assay [2] is greater than 9.00.
On to `O=C(Nc1ccc(N2CCC(O)CC2)nc1)c1cccc2cc(Oc3ccnc4ccsc34)ccc12` [Example 34, 6-(Thieno[3,2-b]pyridin-7-yloxy)-naphthalene-1-carboxylic acid (4-hydroxy-3,4,5,6-tetrahydro-2H-[1,2′]bipyridinyl-5′-yl)-amide], for which the pIC50 in assay [1] was 8.00 to 9.00. In addition, in assay [2], the pKi was greater than 9.00.
For `O=C(NCCN1CCOCC1)c1cccc2cc(Oc3ccnc4ccsc34)ccc12` [Example 15, N-(2-Morpholin-4-ylethyl)-6-(thieno[3,2-b]pyridin-7-yloxy)-1-naphthamide], in assay [1], the pIC50 is less than 8.00. This compound showed a negative-log Ki (pKi) in assay [2] of 8.00 to 9.00.
With `CNC(=O)c1cccc2cc(Oc3ccnc4cc(C(=O)N(C)CCO)sc34)ccc12` [Example 8, N-(2-Hydroxyethyl)-N-methyl-7-({5-[(methylamino)carbonyl]-2-naphthyl}oxy)thieno[3,2-b]pyridine-2-carboxamide], the pIC50 in assay [1] is less than 8.00. The compound also had a pKi in assay [2] of 8.00 to 9.00.
Turning to `CNC(=O)c1cccc2cc(Oc3ccnc4cc(C(=O)N(C)CCN(C)C)sc34)ccc12` [Example 6, N-[2-(Dimethylamino)ethyl]-N-methyl-7-({5-[(methylamino)carbonyl]-2-naphthyl}oxy)thieno[3,2-b]pyridine-2-carboxamide], in assay [1], the pIC50 is less than 8.00. This compound also had a pKi in assay [2] greater than 9.00.
The matching figures for `O=C(NCCN1CCOCC1)c1cccc2cc(Oc3ccnc4cc(C(=O)N5CCC5)sc34)ccc12` [Example 31, 6-[2-(Azetidine-1-carbonyl)-thieno[3,2-b]pyridin-7-yloxy]-naphthalene-1-carboxylic acid (2-morpholin-4-yl-ethyl)-amide]: 8.00 to 9.00 and greater than 9.00.
The matching figures for `CNC(=O)c1cccc2cc(Oc3ccnc4cc(OCCN5CCCCC5)ccc34)ccc12` [Example 46, 6-[7-(2-Piperidin-1-yl-ethoxy)-quinolin-4-yloxy]-naphthalene-1-carboxylic Acid Methylamide]: greater than 9.00 and 8.00 to 9.00.
On to `CNC(=O)c1cccc2c(F)c(Oc3ccnc4cc(C(=O)N5CC[C@H](OC)C5)sc34)ccc12` [Example 1, 5-Fluoro-6-[(2-{[(3S)-3-methoxypyrrolidin-1-yl]carbonyl}thieno[3,2-b]pyridin-7-yl)oxy]-N-methyl-1-naphthamide], for which the pIC50 in assay [1] was greater than 9.00. In assay [2], this compound gave a pKi greater than 9.00.
With `O=C(NCCN1CCOCC1)c1cccc2cc(Oc3ccnc4cc(C(=O)N5CC[C@@H](O)C5)sc34)ccc12` [Example 13, 6-[(2{[(3R)-3-Hydroxypyrrolidin-1-yl]carbonyl}thieno[3,2-b]pyridin-7-yl)oxy]-N-(2-morpholin-4-ylethyl)-1-naphthamide], in assay [1], the pIC50 was 8.00 to 9.00. The same compound had a pKi in assay [2] greater than 9.00.
The matching figures for `CNC(=O)c1cccc2cc(Oc3ccnc4cc(C(=O)N5CC[C@H](OC)C5)sc34)ccc12` [Example 3, 6-[(2-{[(3S)-3-methoxypyrrolidin-1-yl]carbonyl}thieno[3,2-b]pyridin-7-yl)oxy]-N-methyl-1-naphthamide]: greater than 9.00 and greater than 9.00.
For `O=C(NCCCN1CCOCC1)c1cccc2cc(Oc3ccnc4cc(C(=O)N5CCC5)sc34)ccc12` [Example 32, 6-[2-(Azetidine-1-carbonyl)-thieno[3,2-b]pyridin-7-yloxy]-naphthalene-1-carboxylic acid (3-morpholin-4-yl-propyl)-amide], the pIC50 in assay [1] was 8.00 to 9.00. In assay [2], this compound had a pKi greater than 9.00.
As to `Cn1ccnc1-c1cc2nccc(Oc3ccc4c(C(=O)NCCCN5CCOCC5)cccc4c3)c2s1` [Example 30, 6-[2-(1-Methyl-1H-imidazol-2-yl)-thieno[3,2-b]pyridin-7-yloxy]-naphthalene-1-carboxylic acid (3-morpholin-4-yl-propyl)-amide], the pIC50 in assay [1] is greater than 9.00. This compound showed a pKi in assay [2] greater than 9.00.
Take `CNC(=O)c1cccc2cc(Oc3ccnc4cc(C(=O)N(C)C)sc34)ccc12` [Example 4, N,N-Dimethyl-7-({5-[(methylamino)carbonyl]-2-naphthyl}oxy) thieno[3,2-b]pyridine-2-carboxamide]: in assay [1], the pIC50 was 8.00 to 9.00. This compound also had a pKi in assay [2] greater than 9.00.
`CCCCNC(=O)c1cccc2cc(Oc3ccnc4cc(OCCN5CCCC5)ccc34)ccc12` [Example 49, 6-[7-(2-Pyrrolidin-1-yl-ethoxy)-quinolin-4-yloxy]-naphthalene-1-carboxylic Acid Butylamide]: in assay [1], the negative-log IC50 (pIC50) is 8.00 to 9.00. Moreover, the pKi in assay [2] is 8.00 to 9.00.
As to `O=C(NCCCN1CCOCC1)c1cccc2cc(Oc3ncnc4ccsc34)ccc12` [Example 42, 6-(Thieno [3,2-d]pyrimidin-4-yloxy)-naphthalene-1-carboxylic acid (3-morpholin-4-yl-propyl)-amide], the pIC50 in assay [1] was less than 8.00. This compound gave a pKi in assay [2] of 8.00 to 9.00.

(Values after patent publication US20050070508A1, “Napthalene carboxamides and their derivatives useful as new anti-angiogenic agents” (AGOURON PHARMACEUTICALS, INC., priority 2003, published 2005).)
